Measurements taken from ChEMBL document CHEMBL3045645, “Organophosphorus derivatives containing isatin-3-hydrazones as chemotherapeutants against fungal pathogens of sugarcane” (2008).
Values after ≈ are worked out from the molar mass of the structure shown.

Assays:
Type in all cases: functional
[1] = system: Fusarium oxysporum; experiment: Ratio of carbendazim MIC to compound MIC for Fusarium oxysporum after 7 days by food poison technique
[2] = system: Colletotrichum falcatum; experiment: Ratio of carbendazim MIC to compound MIC for Glomerella tucumanensis after 7 days by food poison technique
[3] = system: Fusarium oxysporum; experiment: Antifungal activity against Fusarium oxysporum assessed as mycelial growth inhibition at 28 +/-2 degC after 7 days by food poison technique; conditions: 168 h
[4] = system: Curvularia pallescens; experiment: Ratio of mancozeb MIC to compound MIC for Cochliobolus pallescens after 7 days by food poison technique
[5] = system: Colletotrichum falcatum; experiment: Antifungal activity against Glomerella tucumanensis assessed as mycelial growth inhibition at 1000 ppm at 28 +/-2 degC after 7 days by food poison technique; conditions: 168 h, read-out: GI
[6] = system: Fusarium oxysporum; experiment: Antifungal activity against Fusarium oxysporum assessed as mycelial growth inhibition at 100 ppm at 28 +/-2 degC after 7 days by food poison technique; conditions: 168 h, read-out: GI
[7] = system: Colletotrichum falcatum; experiment: Antifungal activity against Glomerella tucumanensis assessed as mycelial growth inhibition at 28 +/-2 degC after 7 days by food poison technique; conditions: 168 h
[8] = system: Curvularia pallescens; experiment: Antifungal activity against Cochliobolus pallescens assessed as mycelial growth inhibition at 100 ppm at 28 +/-2 degC after 7 days by food poison technique; conditions: 168 h, read-out: GI
[9] = system: Curvularia pallescens; experiment: Ratio of carbendazim MIC to compound MIC for Cochliobolus pallescens after 7 days by food poison technique
[10] = system: Colletotrichum falcatum; experiment: Ratio of copper oxychloride MIC to compound MIC for Glomerella tucumanensis after 7 days by food poison technique
[11] = system: Fusarium oxysporum; experiment: Ratio of copper oxychloride MIC to compound MIC for Fusarium oxysporum after 7 days by food poison technique
[12] = system: Curvularia pallescens; experiment: Antifungal activity against Cochliobolus pallescens assessed as mycelial growth inhibition at 10 ppm at 28 +/-2 degC after 7 days by food poison technique; conditions: 168 h, read-out: GI
[13] = system: Fusarium oxysporum; experiment: Ratio of thiophanate MIC to compound MIC for Fusarium oxysporum after 7 days by food poison technique
[14] = system: Colletotrichum falcatum; experiment: Ratio of thiophanate MIC to compound MIC for Glomerella tucumanensis after 7 days by food poison technique
[15] = system: Curvularia pallescens; experiment: Antifungal activity against Cochliobolus pallescens assessed as mycelial growth inhibition at 1000 ppm at 28 +/-2 degC after 7 days by food poison technique; conditions: 168 h, read-out: GI
[16] = system: Colletotrichum falcatum; experiment: Antifungal activity against Glomerella tucumanensis assessed as mycelial growth inhibition at 100 ppm at 28 +/-2 degC after 7 days by food poison technique; conditions: 168 h, read-out: GI
[17] = system: Curvularia pallescens; experiment: Ratio of copper oxychloride MIC to compound MIC for Cochliobolus pallescens after 7 days by food poison technique
[18] = system: Curvularia pallescens; experiment: Ratio of thiophanate MIC to compound MIC for Cochliobolus pallescens after 7 days by food poison technique
[19] = system: Colletotrichum falcatum; experiment: Antifungal activity against Glomerella tucumanensis assessed as mycelial growth inhibition at 10 ppm at 28 +/-2 degC after 7 days by food poison technique; conditions: 168 h, read-out: GI
[20] = system: Fusarium oxysporum; experiment: Ratio of mancozeb MIC to compound MIC for Fusarium oxysporum after 7 days by food poison technique
[21] = system: Fusarium oxysporum; experiment: Antifungal activity against Fusarium oxysporum assessed as mycelial growth inhibition at 10 ppm at 28 +/-2 degC after 7 days by food poison technique; conditions: 168 h, read-out: GI
[22] = system: Curvularia pallescens; experiment: Antifungal activity against Cochliobolus pallescens assessed as mycelial growth inhibition at 28 +/-2 degC after 7 days by food poison technique; conditions: 168 h
[23] = system: Colletotrichum falcatum; experiment: Ratio of mancozeb MIC to compound MIC for Glomerella tucumanensis after 7 days by food poison technique
[24] = system: Fusarium oxysporum; experiment: Antifungal activity against Fusarium oxysporum assessed as mycelial growth inhibition at 1000 ppm at 28 +/-2 degC after 7 days by food poison technique; conditions: 168 h, read-out: GI

In the case of CCOP(=S)(OCC)O/C(COc1ccc(OP(=S)(OCC)OCC)cc1)=N\N=C1/C(=O)Nc2ccccc21, the Ratio [1] is reported as 2, the Ratio [2] is reported as 2 and the MIC [3] is reported as 1000 µg/mL (≈ 1620 µM). For the same compound, the Ratio [4] was 2, the inhibition of growth at 1000 ppm [5] was 100% and the inhibition of growth at 100 ppm [6] was 82.6%. It also gave an MIC [7] of 1000 µg/mL (≈ 1620 µM), an inhibition of growth at 100 ppm [8] of 80.5% and a Ratio [9] of 2. The Ratio [10] was 2, the Ratio [11] was 2 and the inhibition of growth at 10 ppm [12] was 68.6%. It also gave a Ratio [13] of 2, a Ratio [14] of 2 and an inhibition of growth at 1000 ppm [15] of 100%. The inhibition of growth at 100 ppm [16] was 86.2%, the Ratio [17] was 2 and the Ratio [18] was 2. For the same compound, the inhibition of growth at 10 ppm [19] was 75.1%, the Ratio [20] was 2 and the inhibition of growth at 10 ppm [21] was 70.2%. It also gave an MIC [22] of 1000 µg/mL (≈ 1620 µM), a Ratio [23] of 2 and an inhibition of growth at 1000 ppm [24] of 100%.
